pIC50: −log10 of the molar value. Where two headings read alike, the source gives them in different places.
Test system: NLRP3
Experiment: IL-1β secretion assay in PMA-differentiated, LPS/nigericin-stimulated THP-1 cells (ELISA)
Format: cell-based
Conditions: 25 ng/mL LPS then nigericin, IL-1β in supernatant
Method: Compounds as provided herein were tested in the following assay. Cell culture medium employed contained RPMI 1640 medium (89%), FBS (10%), Pen/Strep (1%), and 2-mercaptoethanol (0.05 mM). Freezing medium was made up of 90% FBS and 10% DMSO. THP-1 cells were removed from the liquid nitrogen and placed into a 37° C. water bath to thaw, until signs of ice dissipated. The cells were then added to 9 mL of warm cell culture medium and centrifuged for 5 minutes at 1000 rpm. The supernatant was discarded, and the cells were resuspended in new cell culture medium. THP-1 cells were then split and cultured in the cell culture medium, being passaged every 2-3 days with the cell density will be maintained between 5×10^5 and 1.5×10^6 viable cells/mL.
PMA was dissolved in DMSO to make a stock solution at 5 mg/ml and stored in 10 μl aliquots at −20° C. for single use. PMA is added to normal growth medium. LPS was diluted with 1 mL of water solution to provide a 1 mg/mL stock solution and stored in 15 μL aliquots at −20° C. for single use. Nigericin is diluted in ice cold 100% ethanol to 5 mg/ml (6.7 mM) and stored in 75 μL aliquots at −20° C. for single use. Serum-free media contains RPMI 1640 medium (99%), Pen/Strep (1%), and 2-mercaptoethanol (0.05 mM). The two control conditions used to qualify and normalize test compound dose-response curves were as follows: High Control=25 ng/mL LPS, […], 0.5% DMSO, Low Control=25 ng/mL, LPS, 0.5% DMSO.
THP-1 cells were diluted to provide a suspension at a concentration of 1.0×10^6 cells/mL with the total volume of suspension required to enable the desired number of assay plates. The growth media was supplemented with PMA (5 ng/mL final concentration) and the cells were incubated at 37° C. under a humidified atmosphere of 5% CO2 for 40 h.
All media was carefully aspirated from each culture flask. The cells were washed carefully with 1×DPBS. The cells were then briefly digested with trypsin LE for 5 minutes at 23° C. and immediately resuspended in cell growth media. After resuspension, the cells were centrifuged at 1000 rpm for 3 minutes and the supernatant was discarded. The cells were resuspended in DPBS and once again centrifuged at 1000 rpm for 5 minutes. The supernatant was discarded and the cell pellet was resuspended in serum-free media supplemented with LPS (25 ng/mL final concentration) to enable the distribution of 30K THP-1 cells within 45 μL of media into each well of 384-well PDL-coated plates. The 384-well plates were then incubated at 37° C. under a humidified atmosphere of 5% CO2 for 2 h. Following this period, test compounds were dispensed by Tecan across the desired concentration range with all wells normalized to a final 0.5% DMSO concentration. The plates were then then incubated at 37° C. under a humidified atmosphere of 5% CO2 for 1 h. Following this period, 5 μL of the 5 mg/mL nigericin stock solution was added to each of the appropriate wells and plates were centrifuged at 1000 rpm for 30 seconds. The plates were the immediately reintroduced to the incubator at 37° C. under a humidified atmosphere of 5% CO2 for 2 h. After this time, 35 μL/well of supernatant was collected and transferred into v-bottom plate and centrifuged at 1000 rpm for 1 minute. These supernatant aliquots were analyzed using an IL-Iβ detection kit as described below. If needed, the test samples could be snap frozen and stored at −80° C. until analyzed.
To prepare each ELISA plate, capture antibody (mAb Mt175) was diluted with PBS to a final concentration of […] and then 20 μL of this solution was added to each well of the ELISA plate. Each plate was allowed to incubate overnight at 4° C. The next day, the capture antibody solution was removed and discarded. Each ELISA plate was washed 4 times with PBST followed by the addition of 25 µL/well of blocking buffer (Licor-927-40010) supplemented with 0.1% Tween 20. Each ELISA plate was then allowed to incubate for 1 hour at 23° C. […]

[1] = Homo sapiens, THP-1, THP-1 cells, read-out: Activity
[2] = Homo sapiens, THP-1, THP-1 cells, read-out: Activity (IC50 class)
[3] = THP-1 cells, read-out: Activity
[4] = THP-1 cells, read-out: Activity (IC50 class)

pIC50 [1] | pIC50 [2] | pIC50 [3] | pIC50 [4] | SMILES
5.81 | 5.00 to 6.00 |  |  | Cc1cnc(NC(=O)CN2CC(C(F)(F)F)c3cc(C)ccc3C2=O)nc1 (stereo not drawn) [Example 9, 2-(6-methyl-1-oxo-4-(trifluoromethyl)-3,4-dihydroisoquinolin-2(1H)-yl)-N-(5-methylpyrimidin-2-yl)acetamide]
 | 5.00 to 6.00 | 5.46 |  | Cc1cnc(NC(=O)CN2CC3(CC3(F)F)c3cc(Br)ccc3C2=O)nc1 (single isomer, unassigned) [Example 18, N-(5-methylpyrimidin-2-yl)-2-[6-bromo-1′,1′-difluoro-1-oxospiro[3H-isoquinoline-4,2′-cyclopropane]-2-yl]acetamide]
7.10 | > 6.00 |  |  | O=C(CN1CC2(CC2)c2c(ccc(Br)c2F)C1=O)Nc1ncc2nc[nH]c2n1 [Example 62, 2-(6-bromo-5-fluoro-1-oxospiro[3H-isoquinoline-4,1′-cyclopropane]-2-yl)-N-(9H-purin-2-yl)acetamide]
 | 5.00 to 6.00 | 5.39 |  | C[C@]1(O)C[C@@H](NC(=O)CN2CC(C(F)(F)F)c3cc(I)ccc3C2=O)C1 (single isomer, unassigned) [Example 10, N-(3-cis-hydroxy-3-methylcyclobutyl)-2-(6-iodo-1-oxo-4-(trifluoromethyl)-3,4-dihydroisoquinolin-2(1H)-yl)acetamide]
7.74 | > 6.00 |  |  | Cc1cnc(NC(=O)CN2C[C@]3(C[C@H]3F)c3cc(C4(F)CC4)ccc3C2=O)nc1 [Example 2, 2-[(2′R,4S)-2′-fluoro-6-(1-fluorocyclopropyl)-1-oxospiro[3H-isoquinoline-4,1′-cyclopropane]-2-yl]-N-(5-methylpyrimidin-2-yl)acetamide]
 |  | 5.16 | 5.00 to 6.00 | O=C(CN1CC2(CC2(F)F)c2cc(C(F)(F)F)ccc2C1=O)Nc1ncc(Cl)cn1 (single isomer, unassigned) [Example 39, N-(5-chloropyrimidin-2-yl)-2-[1′,1′-difluoro-6-(trifluoromethyl)-1-oxospiro[3H-isoquinoline-4,2′-cyclopropane]-2-yl]acetamide]
 |  | 7.26 | > 6.00 | Cc1cnc(NC(=O)CN2CC3(CC3(F)F)c3c(ccc(Br)c3F)C2=O)nc1 (single isomer, unassigned) [Example 33, N-(5-methylpyrimidin-2-yl)-2-[6-bromo-1′,1′,5-trifluoro-1-oxospiro[3H-isoquinoline-4,2′-cyclopropane]-2-yl]acetamide]
6.74 | > 6.00 |  |  | O=C(CN1CC2(CC2)c2cc(C(F)(F)F)ccc2C1=O)Nc1ncc2cn[nH]c2n1 [Example 51, 2-[1-oxo-6-(trifluoromethyl)spiro[3H-isoquinoline-4,1′-cyclopropane]-2-yl]-N-(1H-pyrazolo[3,4-d]pyrimidin-6-yl)acetamide]
 |  | 7.24 | > 6.00 | C[C@]1(O)C[C@@H](NC(=O)CN2CC(C(F)(F)F)c3cc(I)ccc3C2=O)C1 (single isomer, unassigned) [Example 11, N-(3-cis-hydroxy-3-methylcyclobutyl)-2-(6-iodo-1-oxo-4-(trifluoromethyl)-3,4-dihydroisoquinolin-2(1H)-yl)acetamide]
8.70 | > 6.00 |  |  | C[C@]1(O)C[C@@H](NC(=O)CN2C[C@]3(C[C@H]3F)c3c(ccc(I)c3F)C2=O)C1 [Example 5, N-(3-cis-hydroxy-3-methylcyclobutyl)-2-[(2′s,4r)-2′,5-difluoro-6-iodo-1-oxospiro[3H-isoquinoline-4,1′-cyclopropane]-2-yl]acetamide]
 |  | 5.08 |  | C[C@]1(O)C[C@@H](NC(=O)CN2CC3(CC3(F)F)c3cc(C4(F)CC4)ccc3C2=O)C1 (single isomer, unassigned) [Example 22, N-(3-cis-hydroxy-3-methylcyclobutyl)-2-[1′,1′-difluoro-6-(1-fluorocyclopropyl)-1-oxospiro[3H-isoquinoline-4,2′-cyclopropane]-2-yl]acetamide]
8.30 | > 6.00 |  |  | O=C(CN1C[C@]2(C[C@H]2F)c2cc(Br)ccc2C1=O)Nc1ncc2cn[nH]c2n1 [Example 54, 2-[(2′R,4S)-6-bromo-2′-fluoro-1-oxospiro[3H-isoquinoline-4,1′-cyclopropane]-2-yl]-N-(1H-pyrazolo[3,4-d]pyrimidin-6-yl)acetamide]
 | 5.00 to 6.00 | 5.23 |  | O=C(CN1CC2(CC2(F)F)c2cc(C3(F)CC3)ccc2C1=O)Nc1ncc(F)cn1 (single isomer, unassigned) [Example 26, N-(5-fluoropyrimidin-2-yl)-2-[1′,1′-difluoro-6-(1-fluorocyclopropyl)-1-oxospiro[3H-isoquinoline-4,2′-cyclopropane]-2-yl]acetamide]
 |  | 7.17 | > 6.00 | O=C(CN1CC2(CC2(F)F)c2cc(C(F)(F)F)ccc2C1=O)Nc1ncc(F)cn1 (single isomer, unassigned) [Example 41, N-(5-fluoropyrimidin-2-yl)-2-[1′,1′-difluoro-6-(trifluoromethyl)-1-oxospiro[3H-isoquinoline-4,2′-cyclopropane]-2-yl]acetamide]
 | 5.00 to 6.00 | 5.22 |  | Cc1cnc(NC(=O)CN2CC3(CC3(F)F)c3cc(C4(F)CC4)ccc3C2=O)nc1 (single isomer, unassigned) [Example 24, N-(5-methylpyrimidin-2-yl)-2-[1′,1′-difluoro-6-(1-fluorocyclopropyl)-1-oxospiro[3H-isoquinoline-4,2′-cyclopropane]-2-yl]acetamide]
 |  | 7.80 | > 6.00 | O=C(CN1CC2(CC2(F)F)c2c(ccc(C3CC3)c2F)C1=O)Nc1ncc(Cl)cn1 (single isomer, unassigned) [Example 35, N-(5-chloropyrimidin-2-yl)-2-[6-cyclopropyl-1′,1′,5-trifluoro-1-oxospiro[3H-isoquinoline-4,2′-cyclopropane]-2-yl]acetamide]
7.77 | > 6.00 |  |  | N#Cc1cnc(NC(=O)CN2C[C@]3(C[C@H]3F)c3cc(C4(F)CC4)ccc3C2=O)nc1 [Example 3, 2-[(2′R,4S)-2′-fluoro-6-(1-fluorocyclopropyl)-1-oxospiro[3H-isoquinoline-4,1′-cyclopropane]-2-yl]-N-(5-cyanopyrimidin-2-yl)acetamide]
 |  | 6.30 | > 6.00 | O=C(CN1CC2(CC2(F)F)c2cc(Br)ccc2C1=O)Nc1ncc2cn[nH]c2n1 (single isomer, unassigned) [Example 65, 2-(6-bromo-1′,1′-difluoro-1-oxospiro[3H-isoquinoline-4,2′-cyclopropane]-2-yl)-N-(1H-pyrazolo[3,4-d]pyrimidin-6-yl)acetamide]
6.55 | > 6.00 |  |  | O=C(CN1CC2(CC2)c2cc(Br)ccc2C1=O)Nc1ncc2c(C(F)(F)F)n[nH]c2n1 [Example 58, 2-(6-bromo-1-oxospiro[3H-isoquinoline-4,1′-cyclopropane]-2-yl)-N-[3-(trifluoromethyl)-1H-pyrazolo[3,4-d]pyrimidin-6-yl]acetamide]
7.36 | > 6.00 |  |  | Cc1cnc(NC(=O)CN2CC(C(F)(F)F)c3cc(I)ccc3C2=O)nc1 (stereo not drawn) [Example 8, 2-(6-iodo-1-oxo-4-(trifluoromethyl)-3,4-dihydroisoquinolin-2(1H)-yl)-N-(5-methylpyrimidin-2-yl)acetamide]

— US20250197399A1, “COMPOUNDS, COMPOSITIONS, AND METHODS” (Tenvie Therapeutics, Inc., priority 2022, published 2025)
